Numbers after ± are expanded uncertainties.
Details: Liquid

`CCn1cc[n+](C)c1.O=S(=O)([N-]S(=O)(=O)C(F)(F)F)C(F)(F)F` showed a mass density (293.49 K, 101.33 kPa) of 1522.3 ± 2.4 kg/m3, a mass density (293.49 K, 10000 kPa) of 1527.8 ± 3.1 kg/m3 and a mass density (293.49 K, 20000 kPa) of 1533.3 ± 4.4 kg/m3. The mass density (293.49 K, 30000 kPa) was 1538.6 ± 5.7 kg/m3, the mass density (293.49 K, 40000 kPa) was 1543.6 ± 7 kg/m3 and the mass density (293.5 K, 1000 kPa) was 1522.9 ± 2 kg/m3. The mass density (293.5 K, 5000 kPa) was 1525 ± 2.5 kg/m3, the mass density (302.68 K, 101.33 kPa) was 1513.2 ± 2.4 kg/m3 and the mass density (312.64 K, 101.33 kPa) was 1503.2 ± 2.4 kg/m3. For the same molecule, the mass density (322.3 K, 101.33 kPa) was 1493.2 ± 2.3 kg/m3, the mass density (322.3 K, 10000 kPa) was 1499.5 ± 3 kg/m3 and the mass density (322.3 K, 20000 kPa) was 1505.3 ± 4.2 kg/m3. For the same molecule, the mass density (322.3 K, 40000 kPa) was 1516.3 ± 6.6 kg/m3, the mass density (322.31 K, 5000 kPa) was 1496.5 ± 2.4 kg/m3 and the mass density (322.31 K, 30000 kPa) was 1510.9 ± 5.4 kg/m3. It also gave a mass density (322.32 K, 1000 kPa) of 1494 ± 1.9 kg/m3, a mass density (332.58 K, 101.33 kPa) of 1483.2 ± 2.3 kg/m3 and a mass density (342.49 K, 101.33 kPa) of 1473.6 ± 2.3 kg/m3. It also gave a mass density (352.3 K, 20000 kPa) of 1476.5 ± 3.9 kg/m3, a mass density (352.3 K, 40000 kPa) of 1488.2 ± 6.3 kg/m3 and a mass density (352.31 K, 10000 kPa) of 1470.2 ± 2.8 kg/m3. The mass density (352.32 K, 101.33 kPa) was 1463.6 ± 2.2 kg/m3, the mass density (352.32 K, 5000 kPa) was 1467 ± 2.2 kg/m3 and the mass density (352.32 K, 30000 kPa) was 1482.5 ± 5.1 kg/m3. It also gave a mass density (352.34 K, 1000 kPa) of 1464.4 ± 1.8 kg/m3, a mass density (373.3 K, 5000 kPa) of 1446.5 ± 2.2 kg/m3 and a mass density (373.3 K, 30000 kPa) of 1462.8 ± 4.9 kg/m3. It also gave a mass density (373.31 K, 1000 kPa) of 1443.9 ± 1.7 kg/m3, a mass density (373.32 K, 101.33 kPa) of 1443.2 ± 2.2 kg/m3 and a mass density (373.32 K, 10000 kPa) of 1449.9 ± 2.7 kg/m3. For the same molecule, the mass density (373.33 K, 20000 kPa) was 1456.5 ± 3.8 kg/m3, the mass density (373.33 K, 40000 kPa) was 1468.7 ± 6.1 kg/m3 and the mass density (391.25 K, 1000 kPa) was 1426.3 ± 1.7 kg/m3. The mass density (391.28 K, 10000 kPa) was 1432.6 ± 2.6 kg/m3, the mass density (391.28 K, 30000 kPa) was 1446 ± 4.8 kg/m3 and the mass density (391.29 K, 101.33 kPa) was 1425.6 ± 2.1 kg/m3. The mass density (391.29 K, 5000 kPa) was 1429 ± 2.1 kg/m3, the mass density (391.31 K, 20000 kPa) was 1439.4 ± 3.7 kg/m3 and the mass density (391.31 K, 40000 kPa) was 1452.3 ± 5.9 kg/m3. It also gave a mass density (414.92 K, 101.33 kPa) of 1402.4 ± 2 kg/m3, a mass density (414.92 K, 5000 kPa) of 1406 ± 2 kg/m3 and a mass density (414.92 K, 10000 kPa) of 1409.8 ± 2.5 kg/m3. It also gave a mass density (414.92 K, 20000 kPa) of 1417.2 ± 3.5 kg/m3, a mass density (414.92 K, 30000 kPa) of 1424.2 ± 4.6 kg/m3 and a mass density (414.92 K, 40000 kPa) of 1430.9 ± 5.6 kg/m3. The mass density (414.93 K, 1000 kPa) was 1403.1 ± 1.6 kg/m3.

For `CCCC[n+]1ccn(C)c1.O=S(=O)([N-]S(=O)(=O)C(F)(F)F)C(F)(F)F`, the mass density (293.49 K, 101.33 kPa) was 1442.2 ± 2.1 kg/m3, the mass density (293.49 K, 1000 kPa) was 1442.8 ± 1.7 kg/m3 and the mass density (293.49 K, 10000 kPa) was 1449 ± 2.7 kg/m3. The mass density (293.49 K, 30000 kPa) was 1462.1 ± 4.9 kg/m3, the mass density (293.49 K, 40000 kPa) was 1468.4 ± 6.1 kg/m3 and the mass density (293.5 K, 5000 kPa) was 1445.6 ± 2.2 kg/m3. It also gave a mass density (293.5 K, 20000 kPa) of 1455.7 ± 3.8 kg/m3, a mass density (303.15 K, 101.33 kPa) of 1433 ± 2.1 kg/m3 and a mass density (312.84 K, 101.33 kPa) of 1423.9 ± 2.1 kg/m3. The mass density (322.3 K, 10000 kPa) was 1422.5 ± 2.6 kg/m3, the mass density (322.3 K, 40000 kPa) was 1443.6 ± 5.8 kg/m3 and the mass density (322.31 K, 101.33 kPa) was 1414.9 ± 2 kg/m3. For the same molecule, the mass density (322.31 K, 1000 kPa) was 1415.6 ± 1.6 kg/m3, the mass density (322.31 K, 20000 kPa) was 1429.8 ± 3.6 kg/m3 and the mass density (322.31 K, 30000 kPa) was 1436.8 ± 4.7 kg/m3. The mass density (322.32 K, 5000 kPa) was 1418.7 ± 2 kg/m3, the mass density (332.78 K, 101.33 kPa) was 1405.1 ± 2 kg/m3 and the mass density (342.98 K, 101.33 kPa) was 1395.5 ± 2 kg/m3. The mass density (352.31 K, 5000 kPa) was 1390.9 ± 1.9 kg/m3, the mass density (352.31 K, 10000 kPa) was 1395.1 ± 2.4 kg/m3 and the mass density (352.32 K, 20000 kPa) was 1403 ± 3.4 kg/m3. For the same molecule, the mass density (352.32 K, 30000 kPa) was 1410.7 ± 4.4 kg/m3, the mass density (352.32 K, 40000 kPa) was 1418 ± 5.4 kg/m3 and the mass density (352.33 K, 101.33 kPa) was 1386.6 ± 1.9 kg/m3. The mass density (352.33 K, 1000 kPa) was 1387.5 ± 1.6 kg/m3, the mass density (373.3 K, 30000 kPa) was 1392.7 ± 4.2 kg/m3 and the mass density (373.31 K, 5000 kPa) was 1371.6 ± 1.9 kg/m3. It also gave a mass density (373.31 K, 20000 kPa) of 1384.5 ± 3.3 kg/m3, a mass density (373.32 K, 101.33 kPa) of 1367.1 ± 1.9 kg/m3 and a mass density (373.32 K, 1000 kPa) of 1368 ± 1.5 kg/m3. The mass density (373.32 K, 10000 kPa) was 1376 ± 2.3 kg/m3, the mass density (373.33 K, 40000 kPa) was 1400.4 ± 5.2 kg/m3 and the mass density (391.27 K, 1000 kPa) was 1351.3 ± 1.5 kg/m3. For the same molecule, the mass density (391.28 K, 101.33 kPa) was 1350.4 ± 1.8 kg/m3, the mass density (391.28 K, 10000 kPa) was 1359.8 ± 2.2 kg/m3 and the mass density (391.28 K, 20000 kPa) was 1368.8 ± 3.1 kg/m3. For the same molecule, the mass density (391.28 K, 30000 kPa) was 1377.3 ± 4.1 kg/m3, the mass density (391.28 K, 40000 kPa) was 1385.4 ± 5.1 kg/m3 and the mass density (391.3 K, 5000 kPa) was 1355.1 ± 1.8 kg/m3. For the same molecule, the mass density (414.91 K, 20000 kPa) was 1348.1 ± 3 kg/m3, the mass density (414.91 K, 40000 kPa) was 1365.8 ± 4.8 kg/m3 and the mass density (414.92 K, 101.33 kPa) was 1328.5 ± 1.7 kg/m3. The mass density (414.92 K, 1000 kPa) was 1329.5 ± 1.4 kg/m3, the mass density (414.92 K, 5000 kPa) was 1333.6 ± 1.7 kg/m3 and the mass density (414.92 K, 10000 kPa) was 1338.6 ± 2.1 kg/m3. The mass density (414.92 K, 30000 kPa) was 1357.2 ± 3.9 kg/m3.

Reference: the NIST ThermoML archive (doi:10.1021/je700224j)
